Data from US11147796B2, “Agent for preventing or ameliorating hearing impairment” (Tohoku University, priority 2017, dated 2021).

What was measured:
“m.1555A>G mutant” cells = assay: Cell survival level (MTT assay) of cisplatin- or gentamicin-treated cells; type: cell-based, human; conditions: 24 hours; for reduction of the cell survival level by gentamicin: gentamicin 2000 μM
Description: In the following Examples 2, 3, and 5, “m.1555A>G mutant” cells were obtained by skin reproductive to a patient having “m.1555A>G mutation” to obtain dermal fibroblasts, then 10% Primary culture was carried out in DMEM (low glucose) culture solution (manufactured by Nacalai Tesque, Inc) containing FBS (Fetal bovine serum) under the condition of 5% CO2/20% O2, at 37° C. and isolated. In the following Examples 4 and 5, the inner ear culture was carried out in DMEM (high glucose) culture medium containing 10% FBS (Fetal bovine serum) under the condition of 5% CO2/20% O2, at 37° C.
[1] 2000 cells of “m.1555A>G mutant” cells were plated per well in a 96-well cell culture plate and cultured for 24 hours.
[2] Cisplatin (manufactured by Yakult Corporation) or gentamicin (manufactured by Nacalai Tesque, Inc.) was mixed into the culture solution to be 100 μM and 2000 μM, respectively, and the compound #5 synthesized in Example 1 was mixed with various concentrations (1 and 10 μM), and cultured for 24 hours (cisplatin-treated group and gentamicin-treated group). As a control, “m.1555A>G mutant” cells were cultured in the absence of cisplatin (control group) or cisplatin-treated group in the absence of compound #5 (DMSO was added to 0.01%) for 24 hours. Cell survival level was measured by MTT assay using Cell Counting Kit-8 (manufactured by Dojindo laboratories). Specifically, 100 μL of Cell Count Reagent SF was added to each well, followed by incubation for 2 hours, and then stirred with a microplate reader for 3 seconds. Then the absorbance with 450 nm (reference 750 nm) was measured.

[1] = system: wild-type male mice (C57BL/6) exposed to strong sound; assay: Hearing ability by ABR after strong acoustic exposure; type: in vivo, mouse; conditions: vs non-administration group
Description: (§1) Ndufs 4 KO mice (mutant mice due to the substitution of the second exon of the Ndufs 4 gene with Neo sandwiched between loxP sequences) were purchased from Jacson Laboratory. The genetic background of the mouse was C57BL/6, and 60 days old (body weight 10 to 13 g) was used. Compound #5 (1 mg/kg body weight/day) synthesized in Example 1 was orally administered to Ndufs 4 KO mice (administration group of Ndufs 4 KO mice, n=5), between 28 and 60 days of age, at 60 days of age, the hearing ability of the compound #5 administration group was evaluated by auditory brainstem response (ABR). As a control, the hearing ability of Nudfs 4 KO mice not received compound #5 (non-administration group of Ndufs 4 KO mice, n=4), wild type mice not received compound #5 (non-administration group of wild type mice, n=3) and Ndufs 4 hetero KO mice not received compound N #5 (non-administration group of Ndufs 4 hetero KO mice, n=4) was assessed by ABR at 60 days of age. In measuring the hearing ability, a mixture of ketamine (100 mg/kg body weight) and xylazine (20 mg/kg body weight) were anesthetized by intraperitoneal injection of mice. ABR was also analyzed using TDT System 3 workstation and BioSigRP software (Tucker-Davis Technologies). The averaging (1000 times) of the evoked response to the tone burst sound of each frequency (4, 8, 12, 16, and 32 kHz) was recorded. Stimuli sounds were presented at 5 dB intervals from each frequency, 100 dB SPL (Sound Pressure Level) to 10 dB SPL. The threshold value of ABR was set as the minimum sound pressure threshold value at which at least one waveform was confirmed with reproducibility.
Six male wild-type male mice (C57BL/6) were inoculated into each of three groups (non-administration group of wild type mice, administration (1) group of wild type mice and administration (10) group of wild type mice). Compound #5 (1 mg/kg body weight/day) was orally administered to the administration (1) group of wild type mice for 1 week, compound group #5 (10 mg/kg body weight/day) for 1 week. Compound #5 was not administered to the non-administration group of wild-type mice. After oral administration for 1 week, each group of mice was placed in a chamber for strong acoustic exposure in an awake state, and octave band noise of sound pressure level 100 dB SPL, 8 to 16 kHz was exposed for 2 hours. Noise was generated with a noise generator (SF-06, Random Noise Generator; manufactured by RION), then amplified with an amplifier (D-75A; manufactured by Crown), and the audio was filtered with an audio filter (Multifunction Filter; manufactured by NF Corporation). The frequency band was set and outputted by a speaker (2446H; manufactured by JBL) attached to the center of the ceiling in the chamber. The sound pressure level was measured and confirmed with a sound pressure measuring device (2250L; manufactured by Bruel & Kjar) for each experiment. Hearing power was evaluated by ABR according to the method described in item “6-1” of Example 6 before strong-acoustic exposure and 4 hours after exposure.

Ndufs 4 KO mice = assay: Hearing ability by auditory brainstem response (ABR) in Ndufs 4 KO mice; type: in vivo, mouse; conditions: vs non-administration KO
Description: as §1, with “The threshold value of ABR was set as the minimum sound pressure threshold value at which at least one waveform was confirmed with reproducibility.” left out
Using Ndufs 4 KO mice and their littermate wild type mice (littermate wild type mice), the hearing power of littermate wild type mice not received compound #5 (non-administration group of wild-type mice, n=5), Ndufs 4 KO mice not received compound #5 (non-administration group of Ndufs 4 KO mice, n=5) and Ndufs 4 KO mice received compound #5 (administration group of Ndufs 4 KO mice, n=5) were evaluated by ABR at 28 days of age and 60 days of age according to the method described in the item “6-1” of Example 6. […]

[2] = 1 mg/kg body weight/day oral for 1 week
[3] = 10 mg/kg body weight/day oral for 1 week

O=C(CC(C(=O)O)c1c[nH]c2ccccc12)c1ccc(F)cc1F (centres unmarked) [compound #5, 4-(2,4-Difluorophenyl)-2-(1H-indol-3-yl)-4-oxo-butanoic Acid]
decrease in cell survival level due to cisplatin treatment (“m.1555A>G mutant” cells; cisplatin 100 μM, compound 1 to 10 μM): significantly suppressed
reduction of the cell survival level by gentamicin (“m.1555A>G mutant” cells; compound 10 μM): significantly suppressed
reduction of the cell survival level by gentamicin (“m.1555A>G mutant” cells; compound at least 1 μM): suppressed
ABR threshold change before and after strong acoustic exposure [1, 2]: decreased
ABR threshold value after 4 hours of strong acoustic exposure [1, 2]: lower
ABR threshold change before and after strong acoustic exposure [1, 3]: decreased
ABR threshold value after 4 hours of strong acoustic exposure [1, 3]: lower
ABR threshold values before strong acoustic exposure ([1]; 1 and 10 mg/kg body weight/day oral for 1 week): no difference
ABR threshold (Ndufs 4 KO mice; Example 6, 1 mg/kg body weight/day oral, 28 to 60 days of age, measured at 60 days): lower than the ABR threshold in the non-administration group of Ndufs 4 KO mice
ABR threshold value (Ndufs 4 KO mice; Example 7, 1 mg/kg body weight/day oral, at 60 days of age): decreased
ABR threshold (Ndufs 4 KO mice; Example 8, 0.3 mg/kg body weight/day oral): decreased
